From patent US10925872B2, “Methods of treating cochlear synaptopathy” (PIPELINE THERAPEUTICS, INC., priority 2016, dated 2021)

What was measured:
[1] = tested on: Type I spiral ganglion neurons; assay: Type I spiral ganglion neuron neurite outgrowth with GSIs; format: cell-based, CD-1 mice; settings: 24-48 h, 0.1% DMSO
Method: Mouse spiral ganglion neurons (SGN) were harvested from CD-1 mice (postnatal day 3 to 5), dissociated and cultured on collagen I in serum free media. Cells were treated for 24-48 h with test compound in 0.1% DMSO then immunostained with the neurite marker, Tuj1 and imaged. Neurite length was quantified using ImageJ software (developed by NIH and available publicly). Only Tuj1^+ cells with clear bipolar morphology characteristic of Type I SGNs were quantified. The test compounds were Compound I, Compound II, and RO4929097, as well as the Notch sparing GSI, BMS-708163; NT-3 was included as positive control. […] Moreover, BMS-708163, a Notch-sparing GSI, and Compound I, a Notch inhibiting GSI, both increased type I SGN neurite outgrowth (FIG. 6C).

inner hair cell synapses [2] = assay: Guinea pig kanamycin-induced cochlear synaptopathy model; format: in vivo, Hartley guinea pigs; settings: kanamycin 400 mg/kg i.p. 10 days; 30 μl of 2% in vehicle bilateral transtympanic on day 15; three months after
Method: Beginning on day 0, male Hartley guinea pigs (450-500 g) were deafened by intraperitoneal administration of kanamycin (400 mg/kg) dosed once daily for 10 consecutive days. […] A loss of synapse density in this model has not been described previously. On day 15, animals received bilateral transtympanic injections of vehicle (30 μl), crystalline Compound I (30 μl of 2% in vehicle), or crystalline Compound II (30 μl of 2% in vehicle). Three months after administration of test article, animals were euthanized and cochleae collected and stained with phalloidin and antibodies against CtBP2 and NF-200. The number of CtBP2+/NF-200+ synapses were quantified and normalized to the number of inner hair cells to obtain synapse density. Synapse density was decreased with kanamycin treatment at 14.7 and 17.3 mm from the apex of the cochlea, which in the guinea pig cochlea, tonally correlates with 16 and 32 kHz, respectively, according to the Greenwood frequency map.
Vehicle (PF10) and GSI in vehicle used in Examples 6 and 7 were prepared as follows: To 129 mL sterile water was added, 0.96 g sodium chloride, 0.59 g sodium phosphate dibasic, and 0.14 g sodium phosphate monobasic. The solution was stirred at ambient temperature and 25.6 g poloxamer 407 was added and stirred overnight to yield a clear solution. […]

[3] = tested on: Type I spiral ganglion neurons; assay: Type I spiral ganglion neuron neurite outgrowth with GSMs; format: cell-based, CD-1 mice; settings: for EC50: 24 h treatment, Type I SGNs; for neurite outgrowth (length of Type I SGN neurites): varying concentrations, 24 h
Method: Spiral ganglion neurons (SGNs) were cultured from postnatal day 5 CD-1 mice using methods adapted from Whitlon D S, et al., Scientific Reports, 2015, 5, 15960, doi:10.1038/srep15960. Neurons were dissociated and plated onto collagen-coated 96-well plates in growth media (DMEM/F12, N2 and B27 serum supplements and penicillin/streptomycin). After 18 h in culture, neurons were treated with varying concentrations of RO or NGP-555 for 24 h. Neurons were fixed and stained with a rabbit b-tubulin (somato-axonal marker) antibody followed by a donkey-anti-rabbit secondary antibody conjugated to Alexa 568 and counterstained with Hoechst blue fluorescent dye to stain the DNA. Neurons were imaged on an InCell 2000. Neurite length was measured using ImageJ. Only β-tubulin^+ cells displaying bipolar morphology (indicative of Type I SGNs) were quantified.
To determine whether the netrin-DCC pathway is involved in GSM-induced neurite outgrowth, a function-blocking netrin antibody was applied to the media 1 h prior to addition of 1 μM test compound. After 24 h, neurons are stained with β-tubulin and only neurites from Type I neurons are analyzed. Co-application of the netrin antibody with test compound results in a significant reduction in neurite outgrowth (FIG. 4D).

[4] = tested on: synapses on inner hair cells; assay: Mouse noise-induced cochlear synaptopathy, oral GSM; format: in vivo, CBA/J mice; settings: 98 dB 8-16 kHz noise 2 h; oral gavage from three weeks later; fourteen days later; 32 kHz region
Method: Female CBA/J mice were exposed to 98 dB 8-16 kHz filtered noise for 2 hours. Three weeks later, vehicle (0.5% Methylcellulose, b.i.d.), NGP-555 (50 mg/kg, b.i.d.) or RO (10 mg/kg, q.d.) was given by oral gavage. Fourteen days later, mice were euthanized, cochlea removed, then tissue was fixed by perfusion with 4% paraformaldehyde. Cochlea were washed with calcium/magnesium free PBS then decalcified in 12.5 mM EDTA for 3 days. Cochlea were bisected with a midmodiolar cut through the oval window to apex. Individual turns were then separated and stained with antibodies against Myo6 and CtBP2. Synapses per inner hair cell were quantified on the turn containing the 32 kHz region. Consistent with literature, a decrease in synaptic density (but no decrease in inner or outer hair cell number) was observed after the 98 dB insult.

DCC α-fragment [5] = assay: DCC α-fragment Western blot, mouse ex vivo embryonic spinal cord; format: cell-based, CD-1 mice; settings: embryonic day 15 spinal cord segments, 1 μM, 24 h, normalized to actin
Description: (§1) Previous reports have shown that DCC (deleted in colorectal cancer) is a γ-secretase substrate. DCC is the receptor for the guidance molecule, netrin, and its activation results in neuronal axon outgrowth, axon turning and synapse formation. Embryonic spinal cords of presenilin knockout mice treated display persistent expression of the DCC α-fragment; these fragments can enhance netrin-DCC mediated events, including axon outgrowth in cultured motor neurons (Taniguchi et al., 2003, J. Biol. Chem., 278:30425-30428, and Bai et al., 2011, Cell, 144(1): 106-18). The following studies were performed using GSM, “RO”, as well as the GSI, Compound I. RO has the structure:
Spinal cords from embryonic day 15 CD-1 mice were collected and cut into 1-2 mm segments and transferred to serum-free growth media (DMEM-F12, N2 and B27 serum supplements, penicillin/streptomycin) with 1 μM RO or 1 μM Compound I. Segments were cultured for 24 h (37° C., 5% CO2) then processed for Western blot. Membranes were probed with a DCC antibody recognizing the intracellular domain and bands were normalized to actin.

DCC α-fragment [6] = assay: DCC α-fragment Western blot, mouse ex vivo cochlea (spiral ganglion); format: cell-based, CD-1 mice; settings: postnatal day 21 cochlea, 1 μM, 24 h, normalized to actin
Description: as §1
Cochleae were obtained from postnatal day 21 CD-1 mice. An opening was made in the bone at the cochlear apex to allow for fluid flow. Cochlea were incubated in serum-free growth media (DMEM-F12, N2 and B27 serum supplements, penicillin/streptomycin) with 1 μM RO or 1 μM Compound I. After 24 h, spiral ganglion were isolated and processed for Western blot. Membranes were probed with a DCC antibody recognizing the intracellular domain and bands were normalized to actin.

inner hair cell synapses [7] = settings: noise-exposed mice, delivery to the round window niche; cited from earlier work

## NC(=O)[C@@H](CCC(F)(F)F)N(Cc1ccc(-c2ncon2)cc1F)S(=O)(=O)c1ccc(Cl)cc1 [BMS-708163, reference compound]
[1]
  lengths of Type I SGN neurites: increased

## CN1C(=O)[C@@H](NC(=O)[C@](C)(F)C(=O)NCC(F)(F)C(F)(F)F)c2ccccc2-c2ccccc21 [Compound II, (2R)-2-fluoro-2-methyl-N—[(S)-5-methyl-6-oxo-6,7-dihydro-5H-dibenzo[b,d]azepin-7-yl]-N′-(2,2,3,3,3-pentafluoropropyl)malonamide]
[1]
  lengths of Type I SGN neurites: significant increase
Inner hair cell synapses [2]
  synapse density (CtBP2+/NF-200+ synapses per inner hair cell): increased

## COc1ccc2c(c1)N1CCC(C)(C)C1=CC(=O)C2NC(=O)[C@H](C)NC(=O)CCC(F)(F)F (stereo partly drawn) [Compound X, 4,4,4-trifluoro-N-((2S)-1-((9-methoxy-3,3-dimethyl-5-oxo-2,3,5,6-tetrahydro-1H-benzo[f]pyrrolo[1,2-a]azepin-6-yl)amino)-1-oxopropan-2-yl)butanamide]
[1]
  lengths of Type I SGN neurites: dose-dependent increase

## CCc1cc(Nc2nc(-c3ccc(-n4cnc(C)c4)c(F)c3)cs2)c(C)cc1C [NGP555]
[3]; Mus musculus, Neuron
  EC50: 527 pM
[3]
  neurite outgrowth (length of Type I SGN neurites): dose dependent increase
[4]
  number of synapses on inner hair cells (synaptic density): significantly increased

## Cc1cn(-c2ccc3n(c2=O)CCN([C@@H](C)[C@@H]2CC[C@H](c4cc(F)c(Cl)cc4C(F)(F)F)O2)C3=O)cn1 [PF-06648671]
[3]
  EC50: 303 pM
  neurite outgrowth (length of Type I SGN neurites): dose-dependence increases

## CC(C)(C(=O)NCC(F)(F)C(F)(F)F)C(=O)N[C@@H]1C(=O)Nc2ccccc2-c2ccccc21 [RO4929097, reference compound]
[1]
  lengths of Type I SGN neurites: significant increase

## Cc1nsc(N2C[C@H]3CC[C@@H](C2)[C@@H]3Nc2nc3c(-c4ccc(F)c(F)c4F)cccn3n2)n1 [RO]
DCC α-fragment [5]
  DCC α-fragment level compared to the vehicle group: Increase in α-fragment
DCC α-fragment [6]
  DCC α-fragment level compared to the vehicle group: Increase in α-fragment
[3]; Mus musculus, Neuron
  EC50: 24000 pM
[3]
  neurite outgrowth (length of Type I SGN neurites): dose dependent increase
[4]
  number of synapses on inner hair cells (synaptic density): increase in synaptic density

B1: NT-3: growth factor that binds to TrkC receptors; positive control (protein, UniProt P20783 139-257, looked up)
Neurotrophin-3: YAEHKSHRGEYSVCDSESLWVTDKSSAIDIRGHQVTVLGEIKTGNSPVKQYFYETRCKEARPVKNGCRGIDDKHWNSQCKTSQTYVRALTSENNKLVGWRWIRIDTSCVCALSRKIGRT
Inner hair cell synapses [7]
  ABR wave 1 amplitude: improvement
  inner hair cell synapses: recovered inner hair cell synapses
